{
  "source": "patent US20190265231A1",
  "about": "“GPCR (GPR113) INVOLVED IN FAT, FATTY ACID AND/OR LIPID-ASSOCIATED TASTE AND USE IN ASSAYS FOR IDENTIFYING TASTE MODULATORY” (SENOMYX, INC., priority 2015, published 2019)",
  "key": {"GPR113 KO mice": {"system": "GPR113 KO mice", "test": "brief-access licking paradigms in WT and GPR113 KO mice", "type": "in vivo", "conditions": "for licking response of GPR113 KO mice compared with WT: GPR113 KO versus WT; for licking in response to increasing concentrations: WT mice", "procedure": "FIG. 10 contains mean (±SE) number of licks taken to a range of soybean oil concentrations and the vehicle emplex measured during 5-second trials in wild-type (WT; closed circles) and GPR113 knockout (KO; open circles) mice.\nSeveral groups of mice underwent behavioral testing. […] We also tested groups of mice in brief-access licking paradigms. […] Mineral oil was tested as a control for viscosity."}, "GLX mice": {"system": "GLX mice", "test": "brief access licking after glossopharyngeal nerve transection (GLX)", "type": "in vivo", "conditions": "C57Bl/6 mice, GLX versus SHAM", "procedure": "C57Bl/6 mice (Harlan) were trained to lick in the brief access licking. Following training mice were balanced for body weight and average number of licks per trial to water during training and assigned to a surgery group. Mice were allowed to recover for at least two weeks following surgery. They were given two days of licking to water (shutter training), food was taken away overnight and they were tested for their licking responses to soybean oil in […] over 2 days of testing. The next week they were tested in the same manner to sucrose. Following the last day of testing, mice were euthanized and their tongues were taken for histological analysis. CV papilla were cross sectioned and stained with hematoxylin/eosin. An observer blind to the surgical condition counted taste buds."}},
  "data": [
    {"smiles": "[Cl-].[K+]", "note": "[KCl]", "values": [
      {"measurement": "licking response of GPR113 KO mice compared with WT", "setting": "GPR113 KO mice", "result": "responded similarly"}
    ]},
    {"smiles": "[Cl-].[Na+]", "note": "[NaCl]", "values": [
      {"measurement": "licking response of GPR113 KO mice compared with WT", "setting": "GPR113 KO mice", "result": "responded similarly"}
    ]},
    {"smiles": "O=C(O)CC(O)(CC(=O)O)C(=O)O", "note": "[citric acid]", "values": [
      {"measurement": "licking response of GPR113 KO mice compared with WT", "setting": "GPR113 KO mice", "result": "responded similarly"}
    ]},
    {"smiles": "CCCCC/C=C\\C/C=C\\CCCCCCCC(=O)O", "note": "[linoleic acid]", "values": [
      {"measurement": "licking response of GPR113 KO mice compared with WT", "setting": "GPR113 KO mice", "result": "absent or significantly diminished"},
      {"measurement": "licking in response to increasing concentrations", "setting": "GPR113 KO mice", "result": "increased licking"}
    ]},
    {"smiles": "CCCCCCCC/C=C\\CCCCCCCC(=O)O", "note": "[oleic acid]", "values": [
      {"measurement": "licking response of GPR113 KO mice compared with WT", "setting": "GPR113 KO mice", "result": "absent or significantly diminished"},
      {"measurement": "licking in response to increasing concentrations", "setting": "GPR113 KO mice", "result": "increased licking"}
    ]},
    {"smiles": "C=C[C@H]1C[N@@]2CC[C@H]1C[C@H]2[C@H](O)c1ccnc2ccc(OC)cc12", "note": "[quinine]", "values": [
      {"measurement": "licking response of GPR113 KO mice compared with WT", "setting": "GPR113 KO mice", "result": "responded similarly"}
    ]},
    {"smiles": "OC[C@H]1O[C@@](CO)(O[C@H]2O[C@H](CO)[C@@H](O)[C@H](O)[C@H]2O)[C@@H](O)[C@@H]1O", "note": "[sucrose]", "values": [
      {"measurement": "concentration-dependent licking in GLX mice relative to SHAM operated controls", "setting": "GLX mice", "result": "identical increases in licking"},
      {"measurement": "licking response of GPR113 KO mice compared with WT", "setting": "GPR113 KO mice", "result": "responded similarly"}
    ]}
  ]
}
